From US20240116985A1, “STAPLED PEPTIDES AND METHODS THEREOF” (priority 2020, published 2024)
Converted amounts (≈) assume the structure as drawn. Like-named read-outs stand apart in the source and are kept apart here.

Columns and labels:
[1] = biological target: T1, full-length beta-Catenin (Uniprot ID P35222) (Homo sapiens, UniProt P35222); assay: Fluorescence polarization IC50 (beta-catenin / 5FAM-TCF4 10-53 competition); assay type: binding
T1 construct: 10 nM full-length beta-Catenin (Uniprot ID P35222)
T1 sequence (P35222 1-781): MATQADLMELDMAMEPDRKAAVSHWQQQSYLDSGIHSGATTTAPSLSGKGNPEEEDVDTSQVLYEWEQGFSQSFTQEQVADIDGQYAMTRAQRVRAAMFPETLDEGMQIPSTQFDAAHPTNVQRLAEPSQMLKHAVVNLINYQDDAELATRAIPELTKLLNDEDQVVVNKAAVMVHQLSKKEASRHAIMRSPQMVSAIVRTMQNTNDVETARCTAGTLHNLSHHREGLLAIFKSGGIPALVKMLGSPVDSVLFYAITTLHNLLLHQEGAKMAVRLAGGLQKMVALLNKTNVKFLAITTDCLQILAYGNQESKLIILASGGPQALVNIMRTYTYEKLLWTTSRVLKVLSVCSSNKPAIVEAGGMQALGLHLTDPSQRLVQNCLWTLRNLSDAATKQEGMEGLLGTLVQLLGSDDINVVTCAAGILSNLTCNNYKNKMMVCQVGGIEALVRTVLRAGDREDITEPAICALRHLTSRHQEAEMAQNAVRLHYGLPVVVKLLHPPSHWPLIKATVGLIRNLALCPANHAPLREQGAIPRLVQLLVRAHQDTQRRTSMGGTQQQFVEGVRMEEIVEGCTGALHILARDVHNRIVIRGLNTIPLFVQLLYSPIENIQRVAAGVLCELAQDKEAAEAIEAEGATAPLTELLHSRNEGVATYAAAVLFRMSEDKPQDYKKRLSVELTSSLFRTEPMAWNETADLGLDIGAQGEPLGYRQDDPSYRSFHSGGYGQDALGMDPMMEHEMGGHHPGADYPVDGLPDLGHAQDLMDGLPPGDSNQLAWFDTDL

CHI Log D procedure = assay type: physicochemical; details: for chromatographic logD: pH 7.4, CHI Log D; for CHI Log D: pH 7.4
Solubility in PBS = assay type: physicochemical
Summary of the method: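 Solubility is derived from HPLC peak areas: the ratio of the PBS supernatant peak to a 50 μM DMSO peptide peak, times 50 uM.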

[2] = fluorescence polarization, read-out: beta-Catenin FP IC50

Row | SMILES | IC50 [1, 2] [µM] | chromatographic logD (CHI Log D procedure) | Solubility (Solubility in PBS) [µM] | Solubility (Solubility in PBS; Solubility (uM)) [µM] | IC50 ([1]; read-out: FP EC50) [µM] | CHI Log D (CHI Log D procedure)
1 | CC(=O)N1CCC[C@]12CC=CCCCC1(CCCC=CCCCCCC[C@@](C)(C(=O)N[C@@H](Cc3ccccc3)C(=O)N[C@@H](Cc3csc4ccccc34)C(=O)N[C@@H](CCC(N)=O)C(N)=O)NC(=O)[C@H](CC(N)=O)NC(=O)[C@H](Cc3cscn3)NC(=O)[C@H](C)NC(=O)[C@H](C)NC(=O)[C@H](CCC(=O)O)NC(=O)[C@H](CC(=O)O)NC1=O)NC(=O)[C@H](C)NC(=O)[C@H](CC(=O)O)NC2=O (stereo partly drawn) [I-524, Ac-PL3-Asp-Ala-B5-Asp-Glu-Ala-Ala-4Thz-Asn-S8-Phe-BztA-Gln-NH2] | 2.55 | 1.89 | 50 (≈ 91.7 µg/mL) |  |  | 
2 | CC(=O)N1CCC[C@]12CC=CCCCC1(CCCC=CCCCCCC[C@@](C)(C(=O)N[C@@H](Cc3ccccc3)C(=O)N[C@@H](Cc3csc4ccccc34)C(=O)N[C@@H](CCC(N)=O)C(N)=O)NC(=O)[C@H](CC(N)=O)NC(=O)[C@H](Cc3ccccc3)NC(=O)[C@H](C)NC(=O)[C@H](C)NC(=O)[C@H](CNS(C)(=O)=O)NC(=O)[C@H](CC(=O)O)NC1=O)NC(=O)[C@H](C)NC(=O)[C@H](CC(=O)O)NC2=O (stereo partly drawn) [I-533, Ac-PL3-Asp-Ala-B5-Asp-[MeSO2]Dap-Ala-Ala-Phe-Asn-S8-Phe-BztA-Gln-NH2] | 0.155 | 2.29 |  | 44 (≈ 81.9 µg/mL) |  | 
3 | CC(=O)N1CCC[C@]12CC=CCCCC1(CCCC=CCCCCCC[C@@](C)(C(=O)N[C@@H](Cc3ccccc3)C(=O)N[C@@H](Cc3csc4ccccc34)C(=O)N[C@@H](CCC(N)=O)C(N)=O)NC(=O)[C@H](CC(N)=O)NC(=O)[C@H](Cc3ccccc3)NC(=O)[C@H](C)NC(=O)[C@H](C)NC(=O)[C@H](CCC(=O)O)NC(=O)[C@H](CC(=O)O)NC1=O)NC(=O)[C@H](C)NC(=O)[C@H](CNS(C)(=O)=O)NC2=O (stereo partly drawn) [I-534, Ac-PL3-[MeSO2]Dap-Ala-B5-Asp-Glu-Ala-Ala-Phe-Asn-S8-Phe-BztA-Gln-NH2] | 5 | 2.43 |  | 31 (≈ 58.2 µg/mL) |  | 
4 | CC(=O)N1CCC[C@]12CC=CCCCC1(CCCC=CCCCCCC[C@@](C)(C(=O)N[C@@H](Cc3ccccc3)C(=O)N[C@@H](Cc3csc4ccccc34)C(=O)N[C@@H](CCC(N)=O)C(N)=O)NC(=O)[C@H](C(C)C)NC(=O)[C@H](Cc3ccccc3)NC(=O)[C@H](C)NC(=O)[C@H](C)NC(=O)[C@H](CC(=O)O)NC(=O)[C@H](CC(=O)NC(C)C)NC1=O)NC(=O)[C@H](C)NC(=O)[C@H](CC(=O)O)NC2=O (stereo partly drawn) [I-535, Ac-PL3-Asp-Ala-B5-[NHiPr]AsnR-Asp-Ala-Ala-Phe-Val-S8-Phe-BztA-Gln-NH2] | 5 | 2.86 |  | 47 (≈ 86.4 µg/mL) |  | 
5 | CCNC(=O)C[C@@H]1NC(=O)C2(CCCC=CCCCCCC[C@@](C)(C(=O)N[C@@H](Cc3ccccc3)C(=O)N[C@@H](Cc3csc4ccccc34)C(=O)N[C@@H](CCC(N)=O)C(N)=O)NC(=O)[C@H](C(C)C)NC(=O)[C@H](Cc3ccccc3)NC(=O)[C@H](C)NC(=O)[C@H](C)NC(=O)[C@H](CC(=O)O)NC1=O)CCCC=CC[C@]1(CCCN1C(C)=O)C(=O)N[C@@H](CC(=O)O)C(=O)N[C@@H](C)C(=O)N2 (stereo partly drawn) [I-536, Ac-PL3-Asp-Ala-B5-[NHEt]AsnR-Asp-Ala-Ala-Phe-Val-S8-Phe-BztA-Gln-NH2] | 4.47 | 2.75 |  | 23 (≈ 42 µg/mL) |  | 
6 | CCCNC(=O)C[C@@H]1NC(=O)C2(CCCC=CCCCCCC[C@@](C)(C(=O)N[C@@H](Cc3ccccc3)C(=O)N[C@@H](Cc3csc4ccccc34)C(=O)N[C@@H](CCC(N)=O)C(N)=O)NC(=O)[C@H](C(C)C)NC(=O)[C@H](Cc3ccccc3)NC(=O)[C@H](C)NC(=O)[C@H](C)NC(=O)[C@H](CC(=O)O)NC1=O)CCCC=CC[C@]1(CCCN1C(C)=O)C(=O)N[C@@H](CC(=O)O)C(=O)N[C@@H](C)C(=O)N2 (stereo partly drawn) [I-537, Ac-PL3-Asp-Ala-B5-[NHnPr]AsnR-Asp-Ala-Ala-Phe-Val-S8-Phe-BztA-Gln-NH2] | 5 | 2.87 |  | 11 (≈ 20.2 µg/mL) |  | 
7 | CC(=O)N1CCC[C@]12CC=CCCCC1(CCCC=CCCCCCC[C@@](C)(C(=O)N[C@@H](Cc3ccccc3)C(=O)N[C@@H](Cc3csc4ccccc34)C(=O)N[C@@H](CCC(N)=O)C(N)=O)NC(=O)[C@H](C(C)C)NC(=O)[C@H](Cc3ccccc3)NC(=O)[C@H](C)NC(=O)[C@H](C)NC(=O)[C@H](CC(=O)O)NC(=O)[C@H](CC(=O)NC3CC3)NC1=O)NC(=O)[C@H](C)NC(=O)[C@H](CC(=O)O)NC2=O (stereo partly drawn) [I-538, Ac-PL3-Asp-Ala-B5-[NHCyPr]AsnR-Asp-Ala-Ala-Phe-Val-S8-Phe-BztA-Gln-NH2] | 5 | 2.75 |  | 33 (≈ 60.6 µg/mL) |  | 
8 | CC(=O)N1CCC[C@]12CC=CCCCC1(CCCC=CCCCCCC[C@@](C)(C(=O)N[C@@H](Cc3ccccc3)C(=O)N[C@@H](Cc3csc4ccccc34)C(=O)N[C@@H](CCC(N)=O)C(N)=O)NC(=O)[C@H](C(C)C)NC(=O)[C@H](Cc3ccccc3)NC(=O)[C@H](C)NC(=O)[C@H](C)NC(=O)[C@H](CC(=O)O)NC(=O)[C@H](CC(=O)NC3CCC3)NC1=O)NC(=O)[C@H](C)NC(=O)[C@H](CC(=O)O)NC2=O (stereo partly drawn) [I-539, Ac-PL3-Asp-Ala-B5-[NHCyBu]AsnR-Asp-Ala-Ala-Phe-Val-S8-Phe-BztA-Gln-NH2] | 5 | 2.94 | 10 (≈ 18.5 µg/mL) |  |  | 
9 | CO[C@H](C)[C@@H]1NC(=O)[C@H](CC(=O)O)NC(=O)[C@]2(CC=CCCCC3(CCCC=CCCCCCC[C@@](C)(C(=O)N[C@@H](Cc4ccccc4)C(=O)N[C@@H](Cc4csc5ccccc45)C(=O)N[C@@H](CCC(N)=O)C(N)=O)NC(=O)[C@H](CCC(N)=O)NC(=O)[C@H](Cc4ccccc4)NC(=O)[C@H](C)NC(=O)[C@H](C)NC(=O)[C@H](CCC(=O)O)NC(=O)[C@H](CC(=O)O)NC3=O)NC1=O)CCCN2C(C)=O (stereo partly drawn) [I-541, Ac-PL3-Asp-TOMe-B5-Asp-Glu-Ala-Ala-Phe-Gln-S8-Phe-BztA-Gln-NH2] | 0.18 |  | 50 (≈ 94.3 µg/mL) |  | 0.18 | 2.087
10 | CO[C@H](C)[C@@H]1NC(=O)[C@H](CC(=O)O)NC(=O)[C@]2(CC=CCCCC3(CCCC=CCCCCCC[C@@](C)(C(=O)N[C@@H](Cc4ccccc4)C(=O)N[C@@H](Cc4csc5ccccc45)C(=O)N[C@@H](CCC(N)=O)C(N)=O)NC(=O)[C@H](CCC(N)=O)NC(=O)[C@H](Cc4ccccc4)NC(=O)[C@H](C)NC(=O)[C@H](C)NC(=O)[C@H](CCC(=O)O)NC(=O)[C@H](CC(=O)O)NC3=O)NC1=O)CCCN2C(C)=O (stereo partly drawn) [I-542, Ac-PL3-Asp-TOMe-B5-Asp-Glu-Ala-Ala-Phe-Gln-S8-Phe-BztA-Gln-NH2] | 0.109 |  | 39 (≈ 73.5 µg/mL) |  | 0.109 | 2.135
11 | CC[C@H](C)[C@@H]1NC(=O)[C@H](CC(=O)O)NC(=O)[C@]2(CC=CCCCC3(CCCC=CCCCCCC[C@@](C)(C(=O)N[C@@H](Cc4ccsc4)C(=O)N[C@@H](Cc4csc5ccccc45)C(=O)N[C@@H](CCC(N)=O)C(N)=O)NC(=O)[C@H](CC(N)=O)NC(=O)[C@H](Cc4ccccc4)NC(=O)[C@H](C)NC(=O)[C@H](C)NC(=O)[C@H](CC(=O)O)NC(=O)[C@H](CC(=O)O)NC3=O)NC1=O)CCCN2C(C)=O (stereo partly drawn) [I-551, Ac-PL3-Asp-Ile-B5-Asp-Asp-Ala-Ala-Phe-Asn-S8-3Thi-BztA-Gln-NH2] | 0.045 |  | 50 (≈ 93.1 µg/mL) |  | 0.045 | 2.278
12 | CC[C@H](C)[C@@H]1NC(=O)[C@H](CC(=O)O)NC(=O)[C@]2(CC=CCCCC3(CCCC=CCCCCCC[C@@](C)(C(=O)N[C@@H](Cc4ccccc4OC)C(=O)N[C@@H](Cc4csc5ccccc45)C(=O)N[C@@H](Cc4c[nH]cn4)C(N)=O)NC(=O)[C@H](CC(N)=O)NC(=O)[C@H](Cc4ccccc4)NC(=O)[C@H](C)NC(=O)[C@H](C)NC(=O)[C@H](CC(=O)O)NC(=O)[C@H](CC(=O)O)NC3=O)NC1=O)CCCN2C(C)=O (stereo partly drawn) [I-554, Ac-PL3-Asp-Ile-B5-Asp-Asp-Ala-Ala-Phe-Asn-S8-2OMeF-BztA-His-NH2] | 0.0275 |  | 35 (≈ 66.3 µg/mL) |  | 0.0275 | 2.457
